Key:
Assay in all cases: Histone peptide microarray
Type in all cases: binding, human
Settings in all cases: arrays performed twice, n of 4
AIRE (PP) = test system: AIRE (PP)
Outline: (§1)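 GST-tagged PHD readers, 0.5 μM, probed on a microarray of 293 synthetic histone peptides carrying single or combinatorial PTMs (optimized Petell protocol). Signals are averaged over 4 replicates and expressed as relative binding.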

BAZ2B = test system: BAZ2B
Outline: as §1

BPTF (PB) = test system: BPTF (PB)
Outline: as §1

CHD4 (PPCC) = test system: CHD4 (PPCC)
Outline: as §1

CHD5 (PCC) = test system: CHD5 (PCC)
Outline: as §1

CHD5 (PPCC) = test system: CHD5 (PPCC)
Outline: as §1

DIDO1 = test system: DIDO1
Outline: as §1

DPF2 (PPC2W2) = test system: DPF2 (PPC2W2)
Outline: as §1

ING1 = test system: ING1
Outline: as §1

ING2 = test system: ING2
Outline: as §1

ING3 = test system: ING3
Outline: as §1

ING4 = test system: ING4
Outline: as §1

ING5 = test system: ING5
Outline: as §1

KDM4C (TTP) = test system: KDM4C (TTP)
Outline: as §1

KDM5A (1) = test system: KDM5A (1)
Outline: as §1

KDM5A (3) = test system: KDM5A (3)
Outline: as §1

KDM5B (1) = test system: KDM5B (1)
Outline: as §1

KDM5B (3) = test system: KDM5B (3)
Outline: as §1

KDM7A = test system: KDM7A
Outline: as §1

MLL5 = test system: MLL5
Outline: as §1

MORC3 (CW) = test system: MORC3 (CW)
Outline: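 GST-tagged PHD finger readers were expressed, purified and applied at 0.5 μM to a microarray of 293 synthetic histone peptides carrying single or combinatorial PTMs, using an optimized protocol. Binding signals are averages with standard deviation from 4 replicates.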

PHF13 = test system: PHF13
Outline: as §1

PHF21A = test system: PHF21A
Outline: as §1

PHF23 = test system: PHF23
Outline: as §1

PHF2 = test system: PHF2
Outline: as §1

PHF8 = test system: PHF8
Outline: as §1

PHRF1 (RP) = test system: PHRF1 (RP)
Outline: as §1

RAG2 = test system: RAG2
Outline: as §1

SP140L = test system: SP140L
Outline: as §1

TAF3 = test system: TAF3
Outline: as §1

TRIM66 (PB) = test system: TRIM66 (PB)
Outline: as §1

[1] = histone peptide array, GST-tagged reader
[2] = histone peptide array, GST-tagged reader, PB = PHD + Bromodomain
[3] = histone peptide array, GST-tagged reader, PPCC = Dual PHD + Dual Chromodomain

H4K8but (1-23): H4 1-23
Array Heatmap signal, AIRE (PP) (AIRE (PP); [1]): 0.5833
Array Heatmap signal, BAZ2B (BAZ2B; [1]): 0.516
Array Heatmap signal, BPTF (PB) (BPTF (PB); [2]): 0.3704
Array Heatmap signal, CHD4 (PPCC) (CHD4 (PPCC); [3]): 0.5879
Array Heatmap signal, CHD5 (PCC) (CHD5 (PCC); histone peptide array, GST-tagged reader, PCC = PHD + Dual Chromodomain): 0.8434
Array Heatmap signal, CHD5 (PPCC) (CHD5 (PPCC); [3]): 0.6043
Array Heatmap signal, DIDO1 (DIDO1; [1]): 0.6187
Array Heatmap signal, DPF2 (PPC2W2) (DPF2 (PPC2W2); histone peptide array, GST-tagged reader, PPC2W2 = Dual PHD + C2W2-type Zn-finger): 0.6771
Array Heatmap signal, ING1 (ING1; [1]): 0.5208
Array Heatmap signal, ING2 (ING2; [1]): 0.5968
Array Heatmap signal, ING3 (ING3; [1]): 0.4842
Array Heatmap signal, ING4 (ING4; [1]): 0.503
Array Heatmap signal, ING5 (ING5; [1]): 0.3969
Array Heatmap signal, KDM4C (TTP) (KDM4C (TTP); histone peptide array, GST-tagged reader, TTP = Tandem Tudor domain + PHD): 0.554
Array Heatmap signal, KDM5A (1) (KDM5A (1); [1]): 0.5298
Array Heatmap signal, KDM5A (3) (KDM5A (3); [1]): 0.4217
Array Heatmap signal, KDM5B (1) (KDM5B (1); [1]): 0.6708
Array Heatmap signal, KDM5B (3) (KDM5B (3); [1]): 0.4914
Array Heatmap signal, KDM7A (KDM7A; [1]): 0.4551
Array Heatmap signal, MLL5 (MLL5; [1]): 0.5606
Array Heatmap signal, MORC3 (CW) (MORC3 (CW); histone peptide array, GST-tagged reader, CW = CW-type Zn-finger): 0.3738
Array Heatmap signal, PHF13 (PHF13; [1]): 0.6477
Array Heatmap signal, PHF21A (PHF21A; [1]): 0.5096
Array Heatmap signal, PHF23 (PHF23; [1]): 0.5244
Array Heatmap signal, PHF2 (PHF2; [1]): 0.4448
Array Heatmap signal, PHF8 (PHF8; [1]): 0.3491
Array Heatmap signal, PHRF1 (RP) (PHRF1 (RP); [1]): 0.4442
Array Heatmap signal, RAG2 (RAG2; [1]): 0.2428
Array Heatmap signal, SP140L (SP140L; [1]): 0.3902
Array Heatmap signal, TAF3 (TAF3; [1]): 0.3164
Array Heatmap signal, TRIM66 (PB) (TRIM66 (PB); [2]): 0.6276

H4K8me1: H4 1-23 [Peptide H4K8me1]
Array Heatmap value (peptide array binding signal) (AIRE (PP); AIRE (PP), GST-tagged): 0.4246
Array Heatmap value (peptide array binding signal) (BAZ2B; BAZ2B, GST-tagged): 0.4726
Array Heatmap value (peptide array binding signal) (BPTF (PB); BPTF (PB), GST-tagged): 0.3716
Array Heatmap value (peptide array binding signal) (CHD4 (PPCC); CHD4 (PPCC), GST-tagged): 0.6125
Array Heatmap value (peptide array binding signal) (CHD5 (PCC); CHD5 (PCC), GST-tagged): 0.8139
Array Heatmap value (peptide array binding signal) (CHD5 (PPCC); CHD5 (PPCC), GST-tagged): 0.558
Array Heatmap value (peptide array binding signal) (DIDO1; DIDO1, GST-tagged): 0.7218
Array Heatmap value (peptide array binding signal) (DPF2 (PPC2W2); DPF2 (PPC2W2), GST-tagged): 0.7109
Array Heatmap value (peptide array binding signal) (ING1; ING1, GST-tagged): 0.5733
Array Heatmap value (peptide array binding signal) (ING2; ING2, GST-tagged): 0.5951
Array Heatmap value (peptide array binding signal) (ING3; ING3, GST-tagged): 0.514
Array Heatmap value (peptide array binding signal) (ING4; ING4, GST-tagged): 0.4749
Array Heatmap value (peptide array binding signal) (ING5; ING5, GST-tagged): 0.3641
Array Heatmap value (peptide array binding signal) (KDM4C (TTP); KDM4C (TTP), GST-tagged): 0.4883
Array Heatmap value (peptide array binding signal) (KDM5A (1); KDM5A (1), GST-tagged): 0.445
Array Heatmap value (peptide array binding signal) (KDM5A (3); KDM5A (3), GST-tagged): 0.4616
Array Heatmap value (peptide array binding signal) (KDM5B (1); KDM5B (1), GST-tagged): 0.6396
Array Heatmap value (peptide array binding signal) (KDM5B (3); KDM5B (3), GST-tagged): 0.4591
Array Heatmap value (peptide array binding signal) (KDM7A; KDM7A, GST-tagged): 0.3413
Array Heatmap value (peptide array binding signal) (MLL5; MLL5, GST-tagged): 0.5584
Array Heatmap value (peptide array binding signal) (MORC3 (CW); MORC3 (CW), GST-tagged): 0.3765
Array Heatmap value (peptide array binding signal) (PHF13; PHF13, GST-tagged): 0.6242
Array Heatmap value (peptide array binding signal) (PHF21A; PHF21A, GST-tagged): 0.4915
Array Heatmap value (peptide array binding signal) (PHF23; PHF23, GST-tagged): 0.5427
Array Heatmap value (peptide array binding signal) (PHF2; PHF2, GST-tagged): 0.5963
Array Heatmap value (peptide array binding signal) (PHF8; PHF8, GST-tagged): 0.3718
Array Heatmap value (peptide array binding signal) (PHRF1 (RP); PHRF1 (RP), GST-tagged): 0.4962
Array Heatmap value (peptide array binding signal) (RAG2; RAG2, GST-tagged): 0.2588
Array Heatmap value (peptide array binding signal) (SP140L; SP140L, GST-tagged): 0.3853
Array Heatmap value (peptide array binding signal) (TAF3; TAF3, GST-tagged): 0.2722
Array Heatmap value (peptide array binding signal) (TRIM66 (PB); TRIM66 (PB), GST-tagged): 0.6142
